One series addresses T1, hOAT3 (Homo sapiens, UniProt Q8TCC7).
T1 sequence (Q8TCC7 1-542): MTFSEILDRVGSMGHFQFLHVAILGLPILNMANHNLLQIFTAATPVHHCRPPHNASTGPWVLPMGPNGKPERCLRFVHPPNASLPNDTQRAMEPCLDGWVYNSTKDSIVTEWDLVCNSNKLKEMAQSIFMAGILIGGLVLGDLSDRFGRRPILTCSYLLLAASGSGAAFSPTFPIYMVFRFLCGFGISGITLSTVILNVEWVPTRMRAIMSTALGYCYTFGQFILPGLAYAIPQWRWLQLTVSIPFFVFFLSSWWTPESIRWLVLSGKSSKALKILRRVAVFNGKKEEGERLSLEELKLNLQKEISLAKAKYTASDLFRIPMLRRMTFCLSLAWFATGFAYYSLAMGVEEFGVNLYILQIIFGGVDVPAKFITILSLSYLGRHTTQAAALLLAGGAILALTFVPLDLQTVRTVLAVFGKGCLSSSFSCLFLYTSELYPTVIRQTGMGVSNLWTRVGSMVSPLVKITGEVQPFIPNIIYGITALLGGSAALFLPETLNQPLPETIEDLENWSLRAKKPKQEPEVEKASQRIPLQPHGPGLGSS
Nature of the series: In vitro uptake assay in hOAT3-HEK293 cells. The settings on record: M8 10 µM; for inhibition of the uptake of ETV in hOAT3-HEK293 cells / substrate of hOAT3 (uptake in hOAT3-HEK293 vs mock-HEK293 cells): Y101 2.0 µM; for substrate of hOAT3 (uptake in hOAT3-HEK293 vs mock-HEK293 cells): ES 10 µM. As to the method:
The hOAT1-HEK293, hOAT3-HEK293 and mock cells were cultured in Dulbecco modified Eagle medium (DMEM) containing 10% fetal bovine serum (FBS) and 1% penicillin/streptomycin in an atmosphere of 5% CO2 air at 37 °C. The HEK293 cells were plated on 24-well plates at a density of 5 × 10^5 cells/well. […] Uptake assay was initiated by adding 1 mL of the transporter buffer containing Y101, M8, ETV or probe substrate. Following incubation with gentle shaking, the uptake was terminated at designated time by removing the transporter buffer and washing cells three times with 1 mL of ice-cold HBSS. Next, substrates of Y101, M8, ETV, PAH and ES in cell monolayer were released by lysing the cells with 0.3 mL of 0.1% Triton X-100 for 2 h and determined by liquid chromatography–tandem mass spectrometry (LC–MS/MS). In the time-course uptake assay, Y101 (2.0 µM) and M8 (10 µM) in the presence or absence of PRO (100 µM) were measured in hOAT1-HEK293, hOAT3-HEK293 and mock cells. The concentration-dependent uptake of M8 was determined in hOAT3-HEK293 cells, and incubation time (5 min) was optimized. The uptake of M8 (10 µM) with or without ETV was examined in hOAT3-HEK293 cells. The uptake of ETV (10 µM) with or without Y101 or M8 was also measured in hOAT1-HEK293 and hOAT3-HEK293 cells, respectively. Furthermore, PAH and ES at concentrations of 10 µM were used as positive control in hOAT1-HEK293 and hOAT3-HEK293 cells, respectively. Protein concentrations were measured by the bicinchoninic acid procedure (Solarbio, Beijing, China) using bovine serum albumin as the standard.
Biological samples were prepared as previously described. Aliquots (50 µL) of urine, plasma, kidney homogenates, or cell lysates were individually mixed with 150 µL methanol and 50 µL working solution of internal standard (acetaminophen or bestatin), followed by vortexing for 1 min and centrifuging at 13,800 g for 10 min. […] The resulting supernatant (1 µL) was subjected to LC-MS/MS for the assessment of Y101, M8, M9 and ETV, respectively. […] The concentrations of ETV, Y101, M8 and M9 were determined by an AB QTRAP 5500 LC–MS/MS System (Foster City, CA, USA) as previously described. Chromatographic separation was achieved on an Infinitylab Poroshell 120 EC-C18 (50 mm × 2.1 mm, 2.7 µm, Agilent Technology Inc., CA, USA) at 40 °C. The mobile phase consisted of formic acid-acetonitrile (0.05:100, v/v) and a mixture of 1 mmol-ammonium acetate-acetonitrile-formic acid (95:5:0.05, v/v/v) at a flow rate of 0.3 mL/min. […] Analyst1.5.2 software was used for data processing and analysis.

Series [1] can be described thus: Pharmacokinetic DDI study in rats, oral Y101 and/or ETV. It is filed as in vivo, Sprague–Dawley (SD) rats. As to conditions: Sprague-Dawley, rat, plasma, n = 4. As to the method: Additionally, DDI between Y101 and ETV was investigated by monitoring time-course plasma Y101 in rats with surgery as described above. Animals were randomly placed into three groups (n = 4): (1) Y101 alone (25 mg/kg for intravenous treatment and 60 mg/kg for oral administration); (2) ETV (0.06 mg/kg); and (3) Y101 (25 mg/kg for intravenous treatment and 60 mg/kg for oral administration) + ETV (0.06 mg/kg). ETV was dissolved in saline at concentration of 12 µg/mL. Rats received an oral or intravenous dose of Y101 and/or ETV at volume of 5 mL/kg. The doses used in in vivo pharmacokinetic studies were selected in accordance with therapeutic doses of Y101 and ETV commonly used clinically and in previous studies.
Following administration, serial blood samples were collected through jugular vein pre-dose (0 h) and post-dose at 0.033, 0.083, 0.25, 0.5, 1, 1.5, 2, 3, 4, 6, 9, 12, 24 and 30 h in heparinized Eppendorf tubes. The resulting samples were centrifuged at 13,800× g at 4 °C for 5 min to obtain plasma. All plasma samples were stored at −70 °C until analysis.
Biological samples were prepared as previously described.
Non-compartmental analysis with Phenix WinNonlin (version 8.1; Pharsight, Certara Corp, Princeton, NJ) was used to calculate the main pharmacokinetic parameters of ETV, Y101, M8 and M9 for individual rats. The observed values were reported for maximum concentration (Cmax) and time to reach maximum concentration (Tmax), while the area under the plasma concentration–time curve (AUC) was calculated via the default trapezoidal-up, log-trapezoidal-down approach.

Setting [2] is: oral Y101 60 mg/kg + ETV 0.06 mg/kg.

By AUC(0-inf) is commonly meant total exposure, with the tail of the curve extrapolated. One may read the AUC(0-t) as exposure summed from dosing to a finite time, without extrapolation to infinity. One may read the Cmax as the maximum level reached in the sampled fluid or tissue. By Tmax is commonly meant the time at which the peak concentration occurs. What is called half-life is the time needed for the level to fall by half in the phase considered.

For `CN(C)CCOc1ccc(CC(NC(=O)c2ccccc2)C(=O)O)cc1` (centres unmarked) [M8], the “inhibition of the uptake of ETV in hOAT3-HEK293 cells” value against hOAT3 (ETV 10 µM) is reported as “not inhibited”. Also, the “substrate of hOAT3 (uptake in hOAT3-HEK293 vs mock-HEK293 cells)” value at hOAT3 was “substrate of hOAT3”. For the same compound, in series [1] (setting [2]), the AUC(0-inf) worked out at 10400 ng·h/mL, the AUC(0-t) stood at 10300 ng·h/mL, the Cmax worked out at 1980 ng/mL and the time of peak concentration (Tmax) was 90 min. In addition, the half-life in series [1] (setting [2]) is 218 min. Also, in series [1] (oral Y101 60 mg/kg alone), the AUC(0-inf) is 10200 ng·h/mL, the AUC(0-t) was determined as 10100 ng·h/mL, the Cmax came out at 2030 ng/mL and the time to peak (Tmax) came out at 135 min. Besides, the half-life in series [1] (oral Y101 60 mg/kg alone) was 206 min.

Consider `CN(C)CCOc1ccc(C[C@H](NC(=O)c2ccccc2)C(=O)N[C@H](CO)Cc2ccccc2)cc1.Cl` [Y101, N-[N-benzoyl-O-(2-dimethylaminoethyl)-l-tyrosyl]-l-phenylalaninol hydrochloride], for which the “inhibition of the uptake of ETV in hOAT3-HEK293 cells” value on hOAT3 (ETV 10 µM) is listed as “not inhibited”. Moreover, the “substrate of hOAT3 (uptake in hOAT3-HEK293 vs mock-HEK293 cells)” value on hOAT3 is “not a substrate of hOAT1 or hOAT3”. For the same compound, in series [1] (setting [2]), the AUC(0-inf) was found to be 1680 ng·h/mL, the AUC(0-t) is 1620 ng·h/mL, the Cmax worked out at 843 ng/mL and the Tmax was 18.8 min. In addition, the half-life in series [1] (setting [2]) is 66.6 min. In series [1] (oral Y101 60 mg/kg alone), the AUC(0-inf) came out at 1620 ng·h/mL, the AUC(0-t) worked out at 1570 ng·h/mL, the concentration peaked (Cmax) at 668 ng/mL and the Tmax was 15 min. In series [1] (oral Y101 60 mg/kg alone), this compound showed a half-life of 59.9 min.

`C=C1[C@H](CO)[C@@H](O)C[C@@H]1n1cnc2c(=O)[nH]c(N)nc21` [ETV, entecavir]: the “inhibition of the uptake of M8 in hOAT3-HEK293 cells” value against hOAT3 (PRO 100 µM, ETV 10 µM) is reported as “inhibited the uptake of M8”. In series [1] (oral ETV 0.06 mg/kg alone), the AUC(0-inf) turned out to be 8.49 ng·h/mL, the AUC(0-t) came out at 8.15 ng·h/mL, the highest level (Cmax) was 5.54 ng/mL and the Tmax was 30 min. In series [1] (oral ETV 0.06 mg/kg alone), this compound showed a half-life of 66 min. In addition, in series [1] (setting [2]), the AUC(0-inf) is 7.41 ng·h/mL, the area under the curve AUC(0-t) was 6.76 ng·h/mL, the Cmax was determined as 2.94 ng/mL and the Tmax was 52.5 min. In addition, the half-life in series [1] (setting [2]) is 87 min.

For the origin of these results see publication PMC9967645, “OAT3 Participates in Drug–Drug Interaction between Bentysrepinine and Entecavir through Interactions with M8—A Metabolite of Bentysrepinine—In Rats and Humans In Vitro” (Molecules, 2023).
